From PMC8451667 (Emerging Microbes & Infections, 2021)
Like-named read-outs stand apart in the source and are kept apart here.

Tests used:
MDCK cells = conditions: cited from earlier work
[1] = test system: A/California/04/2009 (H1N1) virus; assay: microbe, parasite or virus in culture; type: cell-based, Influenza A virus; conditions: for EC50: Influenza A virus
Ca/04 (H1N1) virus = test system: Ca/04 (H1N1) virus; parameters: species or system mice; conditions: mouse, in vivo
[2] = mouse, in vivo
[3] = test system: several contemporary influenza A viruses; assay: microbe, parasite or virus in culture; type: cell-based; conditions: read-out: EC50 values against all IAVs tested
in vivo = conditions: male, BALB/c, mouse, ip, 50 mg/kg
in vitro = conditions: dog

| Compound | CC50 (MDCK cells) [nM] | EC50 ([1]; H1N1, read-out: EC50 alone Oseltamivir (nM)) [nM] | Clinical signs: activity (Ca/04 (H1N1) virus) | Clinical signs: physical appearance (Ca/04 (H1N1) virus) | Influenza virus nucleoprotein in lungs by immunostaining (Ca/04 (H1N1) virus) | Loss of initial body weight (Ca/04 (H1N1) virus) [%] | Survival (Ca/04 (H1N1) virus) [%] | Virus titers in lung and NT by TCID50 vs Ca/04-vehicle group (Ca/04 (H1N1) virus) | Histopathology of brain, livers, kidneys, lungs and hearts [2] | EC50 [3] [nM] | Combination effect with oseltamivir in cell culture [1] | EC50 ([1]; H1N1, read-out: EC50 alone UAWJ280 (μM)) [nM] | Section with pneumocyte type 2 hyperplasia and hypertrophy, alveolar oedema and inflammation (Ca/04 (H1N1) virus) | AUC(0-inf) (in vivo) [µM·h] | CL/F (in vivo) [mL/min/kg] | Cmax (in vivo) [µM] | Tmax (in vivo) [h] | Vd/F (in vivo) [L/kg] | half-life (in vivo) [h] | CC50 (in vitro) [nM] |
| --- | --- | --- | --- | --- | --- | --- | --- | --- | --- | --- | --- | --- | --- | --- | --- | --- | --- | --- | --- | --- |
| CCC(CC)O[C@@H]1C=C(C(=O)O)C[C@H](N)[C@H]1NC(C)=O [Oseltamivir carboxylate] | > 20000 | – | – | – | – | – | – | – | – | – | – | – | – | – | – | – | – | – | – | – |
| CCOC(=O)C1=C[C@@H](OC(CC)CC)[C@H](NC(C)=O)[C@@H](N)C1 [Oseltamivir, Oseltamivir phosphate, reference compound] | – | 1.77 ± 0.11 | remained alert | mild clinical signs | mild-moderate amounts of viral antigens | ~15 | 85 | trend towards reduced virus load | no signs of toxicity | – | – | – | – | – | – | – | – | – | – | – |
| OC12CC3CC(C1)CC(NCc1ccc(I)s1)(C3)C2 [UAWJ106] | > 100000 | – | – | – | – | – | – | – | – | – | – | – | – | – | – | – | – | – | – | – |
| [2H]C(NC12CC3CC(CC(O)(C3)C1)C2)c1ccc(I)s1 (stereo not shown) [UAWJ280, 3-{[(5-iodothiophen-2-yl)(D)methyl]amino}adamantan-1-ol] | – | – | minor changes in activity | mild clinical signs | moderate amounts of virus nucleoprotein | ~15 | 90 | trend towards reduced virus load | no signs of toxicity | 200 to 600 | strong synergistic antiviral effect | 300 ± 18 | up to 80% | 11.5 | 187 | 5.61 | 0.42 | 38 ± 4.4 | 2.34 | > 100000 |
